In brackets after ≈: the same amount, converted by molar mass.
How the values were obtained:
[1] = system: P. aeruginosa K2896 ΔmexBΔmexXYΔmexCD-oprJ; assay: MIC broth microdilution, P. aeruginosa K2896 efflux mutant; type: cell-based, Pseudomonas aeruginosa
Text: (§1) The results presented above implied that seven pyrrolidine-2,3-dione derivatives inhibited the activity of ^PaPBP3 in vitro. Consequently, we were very interested in investigating the potential of these compounds to affect the growth of P. aeruginosa. Two P. aeruginosa bacterial strains (the wild-type PAO1 and the isogenic ΔmexB ΔmexX ΔmexCD-oprJ efflux pump mutant) were used to determine the MIC and the potential role of the main P. aeruginosa efflux systems in compound uptake. To increase the antibacterial sensitivity of the tested P. aeruginosa isolates to the potential inhibitors, we performed MIC experiments in the presence and absence of a sub-MIC concentration (4 µg/mL) of the outer membrane permeabilising polymyxin B nonapeptide (PMBN). […] Thus, we concluded that the physicochemical properties of the pyrrolidine-2,3-dione compounds were perhaps not yet favourable enough to cross the P. aeruginosa cell envelope without a permeabiliser because of their high hydrophobicity.
(§2) The wild-type P.aeruginosa PAO1 and the isogenic P. aeruginosa K2896 ΔmexBΔmexXYΔmexCD-oprJ isolates were used to determine the MIC in the presence and absence of PMBN [48].
(§3) MIC determination was performed via standard broth microdilution according to the Clinical & Laboratory Standards institute guidelines. Overnight colonies grown on BD-Columbia agar with 5% Sheep Blood (Becton Dickinson, Franklin Lakes, NJ, USA), were diluted in Mueller Hinton Broth 2 cation adjusted (MH+) medium (Thermo Fisher Scientific) to a concentration of 5 × 10^5 CFU/mL. Serial dilutions (1:2) of test compounds were incubated at 37 °C with 5 × 10^4 bacteria in a final volume of 100 μL. Sterile and growth controls in the presence of 1% DMSO and PMBN if the case, and the positive controls, aztreonam (AZT) and tigecycline (TIG) were included in the experiments (Table S4). The MICs were determined visually after 18 h at 37 °C and confirmed by the addition of 10% PrestoBlue (ThermoFisher Scientific) reagent according to the manufacture’s protocol. The fluorescence signal of PrestoBlue reagent was measured at Ex/Em: 550/595 nm after 30 min incubation at 37 °C using at a ClarioStar microplate reader (BMG Labtech). PrestoBlue reduction occurs in the presence of living cells and consequently turns red in colour and is highly fluorescent.

S. pneumoniae = assay: MIC broth microdilution, S. pneumoniae; type: cell-based; details: Streptococcus pneumoniae, 18 h; PMBN 0 µg/mL, control compounds; read-out: MIC (µM) S. pneumoniae
Protocol: as §3

B. subtilis 168 = assay: MIC broth microdilution, B. subtilis; type: cell-based; details: Bacillus subtilis, 168, 18 h; PMBN 0 µg/mL, control compounds
Protocol: as §3

E. coli Neumann = assay: MIC broth microdilution, E. coli; type: cell-based; details: Escherichia coli; PMBN 0 µg/mL, control compounds; read-out: MIC (µM) E. coli Newmann
Protocol: as §3

[2] = system: K. pneumoniae clinical isolate; assay: MIC broth microdilution, K. pneumoniae; type: cell-based; details: control compounds
Protocol: as §3

[3] = system: P. aeruginosa PAO1 (wild-type strain); assay: MIC broth microdilution, P. aeruginosa PAO1; type: cell-based, Pseudomonas aeruginosa
Text: as §1, §2, §3

S. aureus 133 = assay: MIC broth microdilution, S. aureus; type: cell-based; details: Staphylococcus aureus, 133, 18 h; PMBN 0 µg/mL, control compounds
Protocol: as §3

A. baumannii ATCC15308 = assay: MIC broth microdilution, A. baumannii; type: cell-based; details: Acinetobacter baumannii, control compounds
Protocol: as §3

[4] = system: T-lymphoblast CCRF-CEM cell line; assay: Cytotoxicity assay (PrestoBlue), CCRF-CEM; details: CC50, 72 h
Protocol: (§4) We finally tested the cytotoxicity of the compounds against four eukaryotic cell lines (Table 2 and Table S5), NRK-52E, an epithelial kidney cell line of Rattus norvegicus; Hep G2, an human epithelial liver cell line; and two suspension cell lines: CCRF-CEM, a T lymphoblast; and H9, a cutaneous T lymphocyte cell line.
(§5) Cell lines stored at −120 °C were thawed to 37 °C and resuspended in 10 mL of medium pre-warmed to 37 °C. Cells were pelleted at 300× g for 10 min, and then resuspended in fresh medium, seeded in a T-75 culture flask, and placed in a CO2 incubator (37 °C with 5% CO2 tension). Once the cells reached approximately 70–80% confluency, they were then passaged regularly. The adherent cell lines NRK52E, HepG2 and Huh 7 were washed once with 10 mL DPBS and detached with Trypsin-EDTA for 5 to 7 min and resuspended in 15 mL of the appropriate medium. The suspension cell line CCRF-CEM were diluted and resuspended in fresh RPMI 1640 PAN medium. To calculate the cell density, the cell resuspensions were diluted 1:6 with DPBS. Equal volumes of cell suspension and Trypan Blue were mixed and gently loaded into a haemocytometer (INCYTO, 31056 Republic of Korea). In each experiment, cell concentrations were adjusted to reach a concentration of 2.5 × 10^3 cell/well for NRK52E, 5 × 10^3 cell/well for HepG2, 6.2 × 10^4 cell/well for CCRF-CEM and 3 × 10^3 for H9. The cells were incubated with decreasing concentration of compounds (1 µL in 96% DMSO) for 72 h at 37 °C with 5% CO2 tension. Cycloheximide, a cytotoxic compound that interferes with the translocation step in eukaryotic protein synthesis was used as a control for the experiments. The assay was carried out in flat-bottom, transparent 96-well plates. Cell viability was determined using the PrestoBlue reagent (Thermo Fisher Scientific, Waltham, MA, USA) according to the manufacture’s protocol. First, 10× PrestoBlue was added to each well to obtain a 1× solution, and incubated at 37 °C for 45 min. Then, fluorescence was measured at Ex/Em: 550/595 nm using a ClarioStar microplate reader (BMG Labtech). Cytotoxicity was determined as the percentage of the difference in absorbance of the untreated sample to the treated sample. CC50 was calculated using the values obtained in each concentration using the sigmoidal dose-response by Prism v.8. The media used in each cell line is detailed in Table S6.

[5] = system: NRK-52E, epithelial kidney cell line; assay: Cytotoxicity assay (PrestoBlue), NRK52E; details: CC50, 72 h
Protocol: as §4, §5

[6] = system: H9, cutaneous T lymphocyte cell line; assay: Cytotoxicity assay (PrestoBlue), H9; details: CC50, 72 h
Protocol: as §4, §5

[7] = system: Hep G2, epithelial liver cell line; assay: Cytotoxicity assay (PrestoBlue), HepG2; details: CC50, 72 h
Protocol: as §4, §5

[8] = molecular target: T1, PBP3 of P. aeruginosa (PaPBP3) (Pseudomonas aeruginosa, UniProt G3XD46); assay: FP-Bocillin FL competition assay; type: binding; details: 30 min preincubation before Bocillin FL, 37 °C; for IC50: read-out: IC50 Determination with PaPBP3, FP-Bocillin FL Assay
T1 construct: P. aeruginosa PBP3 (amino acids 40 to 563); His-tag; made in house; host or cells: E. coli BL21 (DE3) Rosetta, plasmid pET41_PBP-3
Protocol: Bocillin FL is a fluorescent penicillin V derivate used as a competitor for PBP inhibitors.
Fluorescence polarisation (FP) experiments were carried out as described before. To determine the binding of Bocillin FL to PBP, 200 nM of ^PaPBP3 was incubated for 30 min with 100 nM of Bocillin FL (Thermo Fisher Scientific, Waltham, MA, USA). The fluorescence polarisation signal of free Bocillin FL was monitored in a Pherastar microplate reader (BMG Labtech, Ortenberg, Germany) in the polarisation mode with Ex/Em: 485/520 nm excitation and emission filters. Millipolarisation (mP) units were calculated using the MARS data analysis software v30.40.R2 (BMG Labtech, Ortenberg, Germany). All the experiments were done in Sorensen buffer at 37 °C using flat-bottom, black 96-well plates. […] Bocillin FL was diluted in Sorensen buffer and added to the reaction and directly measured for 30 min at 37 °C. The FP was continuously measured in the presence and absence of compound and enzyme. […] The estimated IC50 values were established by sigmoidal nonlinear regression, using Prims v.8 software.

[9] = molecular target: T1, PBP3 of P. aeruginosa (PaPBP3); assay: S2dfluo fluorescence transpeptidase assay; type: biochemical; details: for IC50: 300 nM PaPBP3, 30 min preincubation, 37 °C, read-out: IC50 Determination with PaPBP3, S2dfluo Assay; for inhibition at 100 µM: read-out: PBP3 Inhibition at 100 µM (%)
Protocol: The assays were carried out in the presence of 5% DMSO and 0.01% Triton X100 to avoid the formation of colloidal structures and adsorption of protein and/or compounds to surfaces. The Z’-factor determined for the assay was 0.73 ± 0.28, indicating the suitability and robustness of the assay for high throughput screening (HTS) (Figure 1B,C).
The activity of soluble ^PaPBP3 (300 nM) was measured in the presence of 0.8 mM S2d, 1 mM D-alanine and 0.5 mM mBBr for 25 min by monitoring the increase in the fluorescence intensity of mBBr at Ex/Em: 394/490 nm using an Infinite M1000 microplate reader (Tecan, Männedorf, Switzerland). To test the effect of inhibitors, 100 µM or 0.8 to 100 µM of compounds diluted in 96% DMSO were incubated for 30 min and 450 rpm with 300 nM soluble PBP3. The incubation period was set to improve the binding of non-covalent inhibitors and 0.01% Triton X100 (Sigma-Aldrich, Taufkirchen, Germany) was added to prevent aggregation of compounds. The enzyme reaction was started by adding a substrate mix of 0.8 mM S2d and […]. The enzyme, compound and substrate mix were mixed 1:1, pipetted with a Liquidator 96 (Melter Toledo, Gießen, Germany) and the fluorescence intensity was directly monitored with an Infinite M1000 microplate reader (Tecan) at Ex/Em: 394/490 nm. The assay was performed in black, flat-bottom 96-well microplates (Greiner Bio-One, Kremsmünster, Austria) at 37 °C in Sorensen Phosphate Buffer (57 mM Na2HPO4 and 10 mM KH2PO4, pH 7.5 + 0.01% Triton X-100). The velocity of the PBP3 reaction was calculated in the presence of each concentration of compound and the velocity values were used to estimate IC50 by sigmoidal nonlinear regression, using Prism v.9 software (San Diego, CA, USA) and the velocity of the reaction at each concentration.

T1 sequence (G3XD46 40-563): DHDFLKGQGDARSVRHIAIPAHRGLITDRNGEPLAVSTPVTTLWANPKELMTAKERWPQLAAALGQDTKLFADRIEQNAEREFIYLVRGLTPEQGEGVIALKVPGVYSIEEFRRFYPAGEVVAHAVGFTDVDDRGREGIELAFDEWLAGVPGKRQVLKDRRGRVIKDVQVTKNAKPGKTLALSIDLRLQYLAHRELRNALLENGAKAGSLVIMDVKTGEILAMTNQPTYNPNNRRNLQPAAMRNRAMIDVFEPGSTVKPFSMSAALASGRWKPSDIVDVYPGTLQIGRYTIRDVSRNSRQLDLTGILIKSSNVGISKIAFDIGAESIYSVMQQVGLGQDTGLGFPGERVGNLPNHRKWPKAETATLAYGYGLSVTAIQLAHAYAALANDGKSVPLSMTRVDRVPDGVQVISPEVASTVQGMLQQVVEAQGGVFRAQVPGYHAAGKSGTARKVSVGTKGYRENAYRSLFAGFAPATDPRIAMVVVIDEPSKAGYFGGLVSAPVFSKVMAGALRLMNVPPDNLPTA

## CN(C)c1cc(NC(=O)CNC(C)(C)C)c(O)c2c1C[C@H]1C[C@H]3[C@H](N(C)C)C(O)=C(C(N)=O)C(=O)[C@@]3(O)C(O)=C1C2=O [Tygecyclin, tigecycline, reference compound]
[1]; Pseudomonas aeruginosa, read-out: MIC (µM) P. aeruginosa K2896
  MIC: 0.8 µM (≈ 0.469 µg/mL)
[1]; ΔmexB, ΔmexX, ΔmexCD-oprJ, with 4 µg/mL PMBN
  MIC (µM) against P. aeruginosa K28926: 0.2 µM (≈ 0.117 µg/mL)
S. pneumoniae
  MIC: 0.1 µM (≈ 0.0586 µg/mL)
B. subtilis 168
  MIC: 0.2 µM (≈ 0.117 µg/mL)
E. coli Neumann
  MIC: 0.4 µM (≈ 0.234 µg/mL)
[2]; PMBN 0 µg/mL
  MIC: 0.9 µM (≈ 0.527 µg/mL)
[2]; PMBN 50 µg/mL
  MIC: 0.4 µM (≈ 0.234 µg/mL)
[3]; Pseudomonas aeruginosa, PAO1, PMBN 0 µg/mL (absence of PMBN)
  MIC: > 4 µM
[3]; wild-type strain, with 4 µg/mL PMBN
  MIC (µM) against P. aeruginosa PAO1: 0.4 µM (≈ 0.234 µg/mL)
S. aureus 133
  MIC: 0.2 µM (≈ 0.117 µg/mL)
A. baumannii ATCC15308; ATCC15308, PMBN 0 µg/mL
  MIC: 0.9 µM (≈ 0.527 µg/mL)
A. baumannii ATCC15308; ATCC15308, PMBN 50 µg/mL
  MIC: 0.4 µM (≈ 0.234 µg/mL)

## C[C@@H]1C[C@@H]([C@H](O)CC2CC(=O)NC(=O)C2)C(=O)[C@@H](C)C1 [Cycloheximide, reference compound]
[4]
  Cytotoxicity CCRF-CEM: 0.66 ± 0.5 µM
[5]
  Cytotoxicity effect (µM) Epithelial kidney NRK52E: 0.20 ± 0.2 µM
[6]
  Cytotoxicity effect (µM) T-lymphocyte H9: 0.53 ± 0.3 µM
[7]
  Cytotoxicity effect (µM) Epithelial liver HepG2: 1.34 ± 0.7 µM

## COc1ccc(CN2C(=O)/C(=C(/C)O)C(=O)[C@@H]2COC(C)(C)C)c(OC)c1 [Compound 8]
[8]
  IC50: 93 ± 18 µM
[9]
  IC50: 66 ± 16 µM

## CSc1ccc(C2c3c(oc4cc(C)cc(C)c4c3=O)C(=O)N2CC2CCCO2)cc1 (stereo not shown) [Compound 9]
[8]
  IC50: 18 ± 3 µM
[9]
  IC50: 99 ± 1 µM
  inhibition at 100 µM: 60%

## CCOC(=O)c1ccc(N2C(=O)C(O)=C(S(=O)(=O)c3ccccc3)C2c2ccc(C(C)C)cc2)cc1 (stereo not shown) [Compound 4]
[8]
  IC50 Determination with PaPBP3, FP-Bocillin FL Assay: failed to inhibit Bocillin FL binding
  IC50: > 100 µM
[9]
  IC50: 24 ± 20 µM
  inhibition at 100 µM: 101%

Reference: PMC8147781, “Discovery of Pyrrolidine-2,3-diones as Novel Inhibitors of P. aeruginosa PBP3” (Antibiotics, 2021)
